Measured values: patent US6191127A, “Substituted heterocycles and their use in medicaments” (Schering Aktiengesellschaft, priority 1997, dated 2001)

Key:
Type in all cases: biochemical
[1] = molecular target: recombinant human inducible NO-synthases (iNOS) (Homo sapiens, UniProt P35228); assay: Inhibition assay with recombinant human inducible NO-synthases (iNOS); conditions: substrate [3H]-arginine; analogously to bcNOS
Excerpt: (§1) The NOS-inhibitory action of the compounds of Formula I and their physiologically compatible salts can be determined with the variants that are mentioned below according to the methods by Bredt and Snyder in Proc. Natl. Acad. Sci. USA (1989) 86, 9030.
(§2) Inhibition assay with recombinant human brain NO-synthases (bcNOS). (Concentration: 0.022 IU/l). Measured parameters: % inhibition by test compound. Substrate: [3H]-arginine (concentration 4.4E-08 mol/l). Analogously to recombinant human endothelial NO-synthases (ecNOS) and recombinant human inducible NO-synthases (iNOS).

[2] = molecular target: recombinant human brain NO-synthases (bcNOS) (Homo sapiens, UniProt P29475); assay: Inhibition assay with recombinant human brain NO-synthases (bcNOS); conditions: substrate [3H]-arginine 4.4E-08 mol/l; bcNOS 0.022 IU/l
Excerpt: as §1, §2

[3] = molecular target: recombinant human endothelial NO-synthases (ecNOS) (Homo sapiens, UniProt P29474); assay: Inhibition assay with recombinant human endothelial NO-synthases (ecNOS); conditions: substrate [3H]-arginine; analogously to bcNOS
Excerpt: as §1, §2

| SMILES | IC50 [1] | IC50 [2] | IC50 [3] |
| --- | --- | --- | --- |
| Cc1cc2c(cc1C)OC(C)C(N)=N2 (stereo not drawn) [2,6,7-Trimethyl-3-amino-1,4-benzoxazine] | > 100 µM | 3 µM | > 10 µM |
| Cc1cccc2c1OC(C)C(N)=N2 (stereo not drawn) [2,8-Dimethyl-3-amino-1,4-benzoxazine] | > 10 µM | 20 µM | > 100 µM |
| CCCC1Oc2ccccc2N=C1N (stereo not drawn) [2-n-Propyl-3-amino-1,4-benzoxazine] | > 100 µM | 1.2 µM | > 10 µM |
